29 molecules from patent US8586588B2, “Aryl pyridazinone derivatives and their use as H3 receptor ligands” (Cephalon, Inc., priority 2006, dated 2013) can be followed below.

For one assay, the target named is T1, human H3 receptor (Homo sapiens, UniProt Q9Y5N1).
T1 construct: expressed in transfected cells
Briefly: Human H3 radioligand binding ([3H]-N-alpha-methylhistamine, CHO cell membranes, SPA). The following applies: binding constant as letter class. The protocol: (§1) Cell pellets were resuspended in 5 mM Tris-HCl, pH 7.5 with […] and a cocktail of protease inhibitors (Complete Protease Inhibition Tablets, Roche Diagnostics). Cells were disrupted using a polytron cell homogenizer and the suspension was centrifuged at 1000×g for 10 minutes at 4° C. The pellet was discarded and the supernatant centrifuged at 40,000×g for 30 min at 4° C. This membrane pellet was washed in membrane buffer containing 50 mM Tris-HCl, pH 7.5 with 0.6 mM EDTA, 5 mM MgCl2 and protease inhibitors, recentrifuged as above and the final pellet resuspended in membrane buffer plus 250 mM sucrose and frozen at −80° C.
(§2) Membranes were resuspended in 50 mM Tris HCl (pH 7.4), 5 mM MgCl2, 0.1% BSA. The membrane suspensions (10 μg protein per well) were incubated in a 96 well microtiter plate with [^3H]-N-alpha-methylhistamine (approximately 1 nM final concentration), test compounds at various concentrations (0.01 nM-30 μM) and scintillation proximity beads (Perkin Elmer, FlashBlueGPCR Scintillating Beads) in a final volume of 80 μl for 4 hours at room temperature, protected from light. Non-specific binding was determined in the presence of 10 μM clobenpropit. Radioligand bound to receptor, and therefore in proximity to the scintillation beads, was measured using a MicroBeta scintillation counter.

Assay [1] has as its target T2, rat histamine H3 receptor (Rattus norvegicus, UniProt Q9QYN8).
T2 construct: encoding the entire 445-amino-acid rat histamine H3 receptor; expressed in transfected cells
Nature of the assay: Rat H3 radioligand binding ([3H]-N-alpha-methylhistamine, CHO-A3 cell membranes, SPA). As to conditions: binding constant as letter class. The procedure:
as §1, with “This was engineered into the pIRES-neo3 mammalian expression vector, which was stably transfected into the CHO-A3 cell line (Euroscreen, Belgium), followed by clonal selection by limiting dilution. Cells were harvested and cell pellets were frozen (−80° C.). Cell pellets” for “Cell pellets”
as §2

pKi: −log10 of the molar value. Like-named read-outs stand apart in the source and are kept apart here. Some results are limits rather than exact numbers.

T2 sequence (Q9QYN8 whole entry): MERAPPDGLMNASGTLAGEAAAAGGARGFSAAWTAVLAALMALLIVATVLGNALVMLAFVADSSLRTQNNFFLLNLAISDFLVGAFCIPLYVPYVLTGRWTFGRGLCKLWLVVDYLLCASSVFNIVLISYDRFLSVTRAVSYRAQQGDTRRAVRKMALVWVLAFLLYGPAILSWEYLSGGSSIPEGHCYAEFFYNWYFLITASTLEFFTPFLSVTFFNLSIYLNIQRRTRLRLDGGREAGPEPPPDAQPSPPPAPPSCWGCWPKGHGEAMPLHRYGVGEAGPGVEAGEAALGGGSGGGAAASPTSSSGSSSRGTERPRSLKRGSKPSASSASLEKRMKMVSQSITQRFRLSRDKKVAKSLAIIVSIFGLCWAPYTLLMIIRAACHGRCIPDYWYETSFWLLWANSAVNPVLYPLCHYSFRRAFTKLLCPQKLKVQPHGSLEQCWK
T1 sequence (Q9Y5N1 whole entry): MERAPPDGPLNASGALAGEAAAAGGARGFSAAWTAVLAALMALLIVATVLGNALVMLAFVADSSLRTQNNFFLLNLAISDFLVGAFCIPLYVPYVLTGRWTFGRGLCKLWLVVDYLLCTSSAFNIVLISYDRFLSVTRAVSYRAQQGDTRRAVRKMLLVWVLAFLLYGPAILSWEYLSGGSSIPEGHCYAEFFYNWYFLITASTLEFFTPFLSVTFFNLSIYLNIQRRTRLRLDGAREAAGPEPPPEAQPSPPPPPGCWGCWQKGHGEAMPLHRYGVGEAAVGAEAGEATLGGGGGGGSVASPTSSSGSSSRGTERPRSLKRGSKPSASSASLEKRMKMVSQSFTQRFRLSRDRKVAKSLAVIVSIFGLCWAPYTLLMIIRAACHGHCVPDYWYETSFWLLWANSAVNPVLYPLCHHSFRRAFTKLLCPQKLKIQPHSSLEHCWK

Turning to `CCCn1nc(-c2ccc(OCCCN3CCC[C@H]3CN3CCCC3)cc2)c2sccc2c1=O` [Example 36, 5-Propyl-7-{4-[3-((S)-2-pyrrolidin-1-ylmethyl-pyrrolidin-1-yl)-propoxy]-phenyl}-5H-thieno[2,3-d]pyridazin-4-one], the pKi is 6.30 to 7.00 at human H3 receptor (Table A) and under 6.00 in assay [1] (Table A, read-out: Rat H3 Ki).

Take `Cn1nc(-c2cccc(OCCCN3CCC[C@H]3CO)c2)c2c(c1=O)CCC2` [Example 127, 4-{3-[3-((S)-2-Hydroxymethyl-pyrrolidin-1-yl)-propoxy]-phenyl}-2-methyl-2,5,6,7-tetrahydro-cyclopenta[d]pyridazin-1-one]: the pKi is 6.00 to 6.30 on human H3 receptor (Table B) and 6.00 to 6.30 in assay [1] (Table B, read-out: rat H3 Ki).

On to `Cc1cc(-c2ccc(OCCCN3CCCCC3)cc2)nn(C)c1=O` [Example 39, 2,4-Dimethyl-6-[4-(3-piperidin-1-yl-propoxy)-phenyl]-2H-pyridazin-3-one], for which the pKi at human H3 receptor (Table A) was 7.00 to 10.00; in assay [1] (Table A, read-out: Rat H3 Ki), 7.00 to 10.00.

With `Cn1nc(-c2ccc(OCCCN3CCCCC3)cc2)c2c(c1=O)CCCC2` [Example 61], the pKi was 7.00 to 10.00 at human H3 receptor (Table A) and 7.00 to 10.00 in assay [1] (Table A, read-out: Rat H3 Ki).

For `O=C1CCC(c2ccc(OC3CCN(C4CCC4)CC3)cc2F)=NN1` [Example 219, 6-[4-(1-Cyclobutyl-piperidin-4-yloxy)-2-fluoro-phenyl]-4,5-dihydro-2H-pyridazin-3-one], the pKi was 7.00 to 10.00 on human H3 receptor (Table B) and 7.00 to 10.00 in assay [1] (Table B, read-out: rat H3 Ki).

As to `Cc1cc(-c2ccc(OCCCN3CCC[C@H]3C)cc2)n[nH]c1=O` [Example 122, 4-Methyl-6-{4-[3-((R)-2-methyl-pyrrolidin-1-yl)-propoxy]-phenyl}-2H-pyridazin-3-one], the pKi on human H3 receptor (Table B) was 7.00 to 10.00; in assay [1] (Table B, read-out: rat H3 Ki), 7.00 to 10.00.

In the case of `C[C@@H]1CCCN1CCCOc1ccc(-c2nn(C)c(=O)cc2-c2ccccc2)cc1` [Example 47, 2-Methyl-6-{4-[3-((R)-2-methyl-pyrrolidin-1-yl)-propoxy]-phenyl}-5-phenyl-2H-pyridazin-3-one], the negative logarithm of the Ki (pKi) at human H3 receptor (Table A) is 7.00 to 10.00; in assay [1] (Table A, read-out: Rat H3 Ki), 7.00 to 10.00.

As for `O=C1C2CC2C(c2ccc(OC3CCN(C4CCC4)CC3)cc2)=NN1CC(F)(F)F` (stereo not shown) [Example 254, 5-[4-(1-Cyclobutyl-piperidin-4-yloxy)-phenyl]-3-(2,2,2-trifluoro-ethyl)-3,4-diaza-bicyclo[4.1.0]hept-4-en-2-one], the pKi at human H3 receptor (Table B) was 7.00 to 10.00; in assay [1] (Table B, read-out: rat H3 Ki) it was 7.00 to 10.00.

As for `O=C1NN=C(c2ccc(OC3CCN(C4CCC4)CC3)cc2)C2CCC12` (stereo not shown) [Example 172, 5-[4-(1-Cyclobutyl-piperidin-4-yloxy)-phenyl]-3,4-diaza-bicyclo[4.2.0]oct-4-en-2-one], the pKi is 7.00 to 10.00 at human H3 receptor (Table B) and 7.00 to 10.00 in assay [1] (Table B, read-out: rat H3 Ki).

With `Cc1nn(C)c(=O)cc1-c1ccc(OCCCN2CCC[C@H]2C)cc1` [Example 86, 2,6-Dimethyl-5-{4-[3-((R)-2-methyl-pyrrolidin-1-yl)-propoxy]-phenyl}-2H-pyridazin-3-one], the pKi was 7.00 to 10.00 at human H3 receptor (Table B) and 7.00 to 10.00 in assay [1] (Table B, read-out: rat H3 Ki).

As for `C[C@@H]1CCCN1CCCOc1ccc2c(c1)CCc1n[nH]c(=O)cc1-2` [Example 218, 8-[3-((R)-2-Methyl-pyrrolidin-1-yl)-propoxy]-5,6-dihydro-3H-benzo[f]cinnolin-2-one], the pKi on human H3 receptor (Table B) was 7.00 to 10.00; in assay [1] (Table B, read-out: rat H3 Ki), 7.00 to 10.00.

Take `Cn1nc(-c2ccc(OCC3CCNCC3)cc2)c2ccccc2c1=O` [Example 63, 2-Methyl-4-[4-(piperidin-4-ylmethoxy)-phenyl]-2H-phthalazin-1-one]: the pKi is under 6.00 on human H3 receptor (Table A) and under 6.00 in assay [1] (Table A, read-out: Rat H3 Ki).

Regarding `Cc1cc(-c2ccc(OCCCN3CCC[C@H]3C)cc2)nn(C(C)C)c1=O` [Example 41, 2-Isopropyl-4-methyl-6-{4-[3-((R)-2-methyl-pyrrolidin-1-yl)-propoxy]-phenyl}-2H-pyridazin-3-one], the pKi was 7.00 to 10.00 at human H3 receptor (Table A) and 7.00 to 10.00 in assay [1] (Table A, read-out: Rat H3 Ki).

For `CN1N=C(c2ccc(OC3CCN(C4CCC4)CC3)cc2)C2CC2C1=O` (stereo not shown) [Example 252, 5-[4-(1-Cyclobutyl-piperidin-4-yloxy)-phenyl]-3-methyl-3,4-diaza-bicyclo[4.1.0]hept-4-en-2-one], the pKi was 7.00 to 10.00 at human H3 receptor (Table B) and 7.00 to 10.00 in assay [1] (Table B, read-out: rat H3 Ki).

As for `Cn1nc(-c2ccc(OCCCN3CCCCC3)cc2)c2ccccc2c1=O` [Example 50, 2-Methyl-4-[4-(3-piperidin-1-yl-propoxy)-phenyl]-2H-phthalazin-1-one], the pKi on human H3 receptor (Table A) is 7.00 to 10.00; in assay [1] (Table A, read-out: Rat H3 Ki), 7.00 to 10.00.

Turning to `Cc1cc(-c2ccc(OCCCN3CCCCC3)cc2)nn(Cc2ccccc2)c1=O` [Example 44, 2-Benzyl-4-methyl-6-[4-(3-piperidin-1-yl-propoxy)-phenyl]-2H-pyridazin-3-one], the pKi at human H3 receptor (Table A) was 7.00 to 10.00; in assay [1] (Table A, read-out: Rat H3 Ki) it was 6.30 to 7.00.

For the molecule `Cn1nc(-c2ccc(OCC3CCN(CC4CC4)CC3)cc2)ccc1=O` [Example 69, 6-[4-(1-Cyclopropylmethyl-piperidin-4-ylmethoxy)-phenyl]-2-methyl-2H-pyridazin-3-one], the pKi is 6.30 to 7.00 on human H3 receptor (Table A) and under 6.00 in assay [1] (Table A, read-out: Rat H3 Ki).

In the case of `O=C1NN=C(c2ccc(OC3CCN(C4CCCC4)CC3)cc2)C2CC12` (stereo not shown) [Example 261, 5-[4-(1-Cyclopentyl-piperidin-4-yloxy)-phenyl]-3,4-diaza-bicyclo[4.1.0]hept-4-en-2-one], the pKi at human H3 receptor (Table B) was 7.00 to 10.00; in assay [1] (Table B, read-out: rat H3 Ki), 7.00 to 10.00.

Consider `CN1N=C(c2ccc(OCCCN3CCCCC3)cc2)C2CCCC2C1=O` (stereo not shown) [Example 59, 2-Methyl-4-[4-(3-piperidin-1-yl-propoxy)-phenyl]-2,4a,5,6,7,7a-hexahydro-cyclopenta[d]pyridazin-1-one], for which the pKi at human H3 receptor (Table A) is 7.00 to 10.00; in assay [1] (Table A, read-out: Rat H3 Ki) it was 7.00 to 10.00.

Consider `C[C@@H]1CCCN1CCCOc1ccc(-c2ccc(=O)n(-c3ccccc3)n2)cc1` [Example 20, 6-{4-[3-((R)-2-Methyl-pyrrolidin-1-yl)-propoxy]-phenyl}-2-phenyl-2H-pyridazin-3-one], for which the pKi was 7.00 to 10.00 at human H3 receptor (Table A) and 7.00 to 10.00 in assay [1] (Table A, read-out: Rat H3 Ki).

As to `O=c1ccc(-c2ccc(OCCCN3CCCCC3)c(F)c2)n[nH]1` [Example 120, 6-[3-Fluoro-4-(3-piperidin-1-yl-propoxy)-phenyl]-2H-pyridazin-3-one], the pKi was 7.00 to 10.00 at human H3 receptor (Table B) and 6.30 to 7.00 in assay [1] (Table B, read-out: rat H3 Ki).

On to `C[C@@H]1CCCN1CCCOc1ccc(-c2ccc(=O)[nH]n2)cc1F` [Example 119, 6-{3-Fluoro-4-[3-((R)-2-methyl-pyrrolidin-1-yl)-propoxy]-phenyl}-2H-pyridazin-3-one], for which the pKi at human H3 receptor (Table B) is 7.00 to 10.00; in assay [1] (Table B, read-out: rat H3 Ki), 7.00 to 10.00.

In the case of `CC(C)n1nc(-c2ccc(OCCCN3CCCCC3)cc2)ccc1=O` [Example 3, 2-Isopropy1-6-[4-(3-piperidin-1-yl-propoxy)-pheny1]-2H-pyridazin-3-one], the pKi at human H3 receptor (Table A) was 7.00 to 10.00; in assay [1] (Table A, read-out: Rat H3 Ki), 7.00 to 10.00.

Consider `Cc1cccnc1-n1nc(C)c(-c2ccc(OCCCN3CCC[C@H]3C)cc2)cc1=O` [Example 101, 6-Methyl-2-(3-methyl-pyridin-2-yl)-5-{4-[3-((R)-2-methyl-pyrrolidin-1-yl)-propoxy]-phenyl}-2H-pyridazin-3-one], for which the pKi at human H3 receptor (Table B) is 7.00 to 10.00; in assay [1] (Table B, read-out: rat H3 Ki), 7.00 to 10.00.

As for `CC1CC(c2ccc(OC3CCN(C4CCC4)CC3)cc2)=NNC1=O` (stereo not shown) [Example 116, 6-[4-(1-Cyclobutyl-piperidin-4-yloxy)-phenyl]-4-methyl-4,5-dihydro-2H-pyridazin-3-one], the pKi at human H3 receptor (Table B) is 7.00 to 10.00; in assay [1] (Table B, read-out: rat H3 Ki), 7.00 to 10.00.

On to `O=c1cc(-c2ccc(OC3CCN(C4CCC4)CC3)nc2)cn[nH]1` [Example 117, 5-[6-(1-Cyclobutyl-piperidin-4-yloxy)-pyridin-3-yl]-2H-pyridazin-3-one], for which the pKi at human H3 receptor (Table B) was 7.00 to 10.00; in assay [1] (Table B, read-out: rat H3 Ki), 7.00 to 10.00.

For `CCN1N=C(c2ccc(OC3CCN(C4CCC4)CC3)cc2)C2CC2C1=O` (stereo not shown) [Example 250, 5-[4-(1-Cyclobutyl-piperidin-4-yloxy)-phenyl]-3-ethyl-3,4-diaza-bicyclo[4.1.0]hept-4-en-2-one], the pKi at human H3 receptor (Table B) was 7.00 to 10.00; in assay [1] (Table B, read-out: rat H3 Ki), 7.00 to 10.00.

`CCCn1nc(-c2ccc(OCCCN3CCC[C@H]3C)cc2)c2sccc2c1=O` [Example 32, 7-{4-[3-((R)-2-Methyl-pyrrolidin-1-yl)-propoxy]phenyl}-5-propyl-5H-thieno[2,3-d]pyridazin-4-one]: the pKi at human H3 receptor (Table A) was 7.00 to 10.00; in assay [1] (Table A, read-out: Rat H3 Ki), 7.00 to 10.00.

In the case of `O=C1C2CC2C(c2ccc(OC3CCN(C4CCC4)CC3)cc2)=NN1c1ccc(F)cc1` (stereo not shown) [Example 253, 5-[4-(1-Cyclobutyl-piperidin-4-yloxy)-phenyl]-3-(4-fluoro-phenyl)-3,4-diaza-bicyclo[4.1.0]hept-4-en-2-one], the pKi was 7.00 to 10.00 on human H3 receptor (Table B) and 7.00 to 10.00 in assay [1] (Table B, read-out: rat H3 Ki).

One may read the pKi as the Ki on a negative log10 scale, so that one unit is a factor of ten.
